Assay results reported in patent US6329363A, “Cephalosporin antibiotics” (Eli Lilly and Company, priority 1998, dated 2001).

Legend:
S.aureus ATCC 29213 = experiment: MIC, in vitro activity vs. S.aureus ATCC 29213; type: cell-based, Staphylococcus aureus; set-up: unit not given beside the values; details: Incubated at 37° C. overnight
Description: (§1) Table 2 summarizes the minimal inhibitory concentrations (MIC's) at which illustrative formula I compounds and cephalothin inhibit certain microorganisms associated with mastitis, such as Staphylococcus aureus 10092 (Newbould strain).
(§2) ^a Incubated at 37° C. overnight

S.aureus 174 C = experiment: MIC, in vitro activity vs. S.aureus 174 C; type: cell-based, Staphylococcus aureus; set-up: unit not given beside the values; details: Incubated at 37° C. overnight
Description: as §1, §2

[1] = test system: Staphylococcus aureus 10092 (Newbould strain); experiment: MIC, in vitro activity vs. S.aureus 10092; type: cell-based; set-up: unit not given beside the values; details: Incubated at 37° C. overnight
Description: as §1, §2

S.aureus F1C = experiment: MIC, in vitro activity vs. S.aureus F1C; type: cell-based, Staphylococcus aureus; set-up: unit not given beside the values; details: Incubated at 37° C. overnight
Description: as §1, §2

[2] = test system: Streptococcus uberis 150 L; experiment: MIC, in vitro activity vs. Streptococcus uberis 150 L; type: cell-based; set-up: unit not given beside the values; details: Incubated at 37° C. overnight
Description: as §1, §2

[3] = test system: Streptococcus uberis 166 L; experiment: MIC, in vitro activity vs. Streptococcus uberis 166 L; type: cell-based; set-up: unit not given beside the values; details: Incubated at 37° C. overnight
Description: as §1, §2

Streptococcus agalactiae = experiment: MIC, in vitro activity vs. Streptococcus agalactiae; type: cell-based; set-up: unit not given here; details: Incubated at 37° C. overnight
Description: as §1, §2

[4] = test system: Strepcococcus dysgalactiae; experiment: MIC, in vitro activity vs. Streptococcus dysgalactiae; type: cell-based; set-up: unit not given here; details: Incubated at 37° C. overnight
Description: as §1, §2

[5] = test system: Staphylococcus aureus 10092 (Newbould); experiment: Efficacy in induced Staphylococcus aureus mastitis model in lactating goats; type: in vivo; details: 8 halves per compound, 2 consecutive milkings 12 hours apart, approximately 25 mg/5 mL dose in peanut oil, from 36 hours post-challenge
Text: Sixteen lactating goats were selected based on the absence of Staphylococcus aureus in pre-challenge milk cultures. Maintenance ration was provided to the animals throughout the study. The goats were milked twice each day using a portable goat milker.
Milk samples were collected during the morning milking. One day prior to challenge, milk culture samples were collected from each half of the test animals to determine if there was a pre-existing infection. Additionally, a sample was collected from each half for Somatic Cell Count (SCC) determination. A milk culture sample and a sample for SCC were collected from each half 24 hours post-challenge and on Days +4 to +6, +8, +11, +13, and +15.
Udder scoring was performed during each milking wing table:
General health observations and body temperature were recorded once a day following milking during the challenge and treatment periods.
Milk samples were submitted for analysis for SCC using an electronic somatic cell counting system.
Milk culture samples were assayed for bacterial culture by plating 1.0 mL and 0.1 mL of the milk sample directly onto duplicate blood agar plates. Additionally, dilutions 10^-1 of the milk sample were plated. Plates were incubated overnight at 37° C.
Staphylococcus aureus 10092 (Newbould) was used as the challenge strain. The challenge culture was grown in Tryptic Soy Broth (TSB) from a lyovial stock overnight (16 hours) at 37° C. TSB (100 mL) was inoculated with 1 mL of the overnight culture and incubated at 37° C. with shaking for 4 hours. The culture was centrifuged at 9000 rpm for 10 minutes at 10° C.; supernatant was removed and the pellet was resuspended in phosphate buffered saline (PBS). Optimum O.D. reading at 650 nm was approximately 0.035. A 10-fold dilution series was prepared with saline to determine the CFU/mL, plating 10^-5, 10^-6, and 10^-7 dilutions onto duplicate blood agar plates. The 10^-7 dilution (approximately 10 CFU/mL) was used for the challenge material, yielding a challenge of 50 CFU/half with a 5-mL infusion.
Sixteen goats were used for the trial. During a one day pre-challenge period, milk samples were collected and temperatures were taken during the morning milking. Milk/udder evaluations were documented during the morning and afternoon milkings.
Staphylococcus aureus 10092 was infused into both halves in each of the goats. The goats were challenged following the morning milking and milked in the afternoon on the day of challenge. The challenge inoculum volume was 5 mL/half containing approximately 50 CFU S. aureus.
For the 24 hr post-challenge period milk samples were collected during the morning milking, and milk/udder evaluations made during the morning and afternoon milking.
Treatment was started at 36 hours post-challenge. Milk samples were collected for culture and SCC 24 hours post-challenge, prior to the morning milking, and the treatment period started following the afternoon milking.
Eight halves (4 goats) each were treated for 2 consecutive milkings 12 hours apart, following milking. Each designated compound was formulated in peanut oil with […] of compound per 5 g of formulation to give approximately 25 mg/5 mL dose.
Following treatment, the goats were milked and observed for 15 days. Milk samples were collected on Days +4 to +6, +8, +11, +13, and +15 to determine if the infection had cleared.
Establishment of mastitis was determined by bacterial culturing, severity of udder scoring, somatic cell count results, and body temperature.
On Days +2 to +6, milk samples were collected for a calorimetric assay to determine whether the antibiotic was still present in the milk.

Mastitis in Cows = experiment: Efficacy in mastitis in lactating cows; type: in vivo; details: three trials, 450 mmoles/quarter/dose for two doses
Description: Compound 1 was administered to lactating cows in three trials using methods analogous to those used in the goat model described in Example 13. A total of 43 quarters were treated with Compound 1, and 36 quarters were treated with cephapirin (Cefa-Lak). Both compounds were administered at 450 mmoles/quarter/dose for two doses. Compound 1 effectively treated 27 out of 43 quarters for an overall cure rate of 63%, whereas cephapirin effectively treated 18 out of 36 quarters for an overall cure rate of only 50%.

Row | Compound | MIC vs. S.aureus ATCC 29213 (S.aureus ATCC 29213) | MIC vs. S.aureus 174 C (S.aureus 174 C) | MIC vs. S.aureus 10092 [1] | MIC vs. S.aureus F1C (S.aureus F1C) | MIC vs. Streptococcus uberis 150 L [2] | MIC vs. Streptococcus uberis 166 L [3] | MIC vs. Streptococcus agalactiae (Streptococcus agalactiae) | MIC vs. Strepcococcus dysgalactiae [4] | % Bacteriologic Cures [5] [%] | overall cure rate (Mastitis in Cows) [%] | quarters effectively treated (Mastitis in Cows)
1 | Cc1nnc(SCC2=C(C(=O)O)N3C(=O)[C@@H](NC(=O)Cc4c(F)c(F)c(F)c(F)c4F)[C@H]3SC2)s1 [Compound 6] | 0.125 | 0.125 | 0.125 | 0.25 | 0.0625 | 0.0156 | 0.0625 | 0.0312 | 60 |  | 
2 | Cc1nnc(SCC2=C(C(=O)O)N3C(=O)[C@@H](NC(=O)COc4ccc(OC(F)(F)F)cc4)[C@H]3SC2)s1 [Compound 7] | 0.312 | 0.312 | 0.312 | 0.0625 | 0.0156 | 0.0078 | 0.0312 | ≤ 0.0078 | 100 |  | 
3 | Cc1nnc(SCC2=C(C(=O)O)N3C(=O)[C@@H](NC(=O)COc4ccc(F)cc4)[C@H]3SC2)s1 [Compound 8] | 0.312 | 0.0312 | 0.0312 | 0.0312 | 0.0312 | 0.0312 | 0.0312 | 0.0312 | 100 |  | 
4 | Cc1nnc(SCC2=C(C(=O)O)N3C(=O)[C@@H](NC(=O)COc4c(F)cc(F)cc4F)[C@H]3SC2)s1 [Compound 9] | 0.125 | 0.0625 | 0.125 | 0.125 | 0.0625 | 0.0625 | 0.0312 | 0.125 | 83 |  | 
5 | Cc1nnc(SCC2=C(C(=O)O)N3C(=O)[C@@H](NC(=O)COc4cc(F)cc(F)c4)[C@H]3SC2)s1 [Compound 10] | 0.0312 | 0.0312 | 0.0312 | 0.0312 | 0.0312 | 0.0156 | 0.0156 | 0.0312 | 33 |  | 
6 | CC(=O)OCC1=C(C(=O)O)N2C(=O)[C@@H](NC(=O)CSc3ccncc3)[C@H]2SC1 [cephapirin, reference compound] |  |  |  |  |  |  |  |  |  | 50 | 18 out of 36
